Measured values reported in ChEMBL document CHEMBL1201862, “PubChem BioAssay data set” (2004).
Activity calls are given as the source filed them. Rule as the data show it, for most assays here: actives have a measured EC50 and inactives only a lower limit.

What was measured:
[1] = Luminescence Cell-Based Dose Response to Identify Activators of 5'UTR Stem-Loop Driven Prion Protein mRNA Translation in H4-C Neuroglioblastoma Cells. [Related pubchem assays: 1829 (Project Summary), 1814 (Primary HTS)]; format: functional
[2] = biological target: T1, RNA-binding protein pos-1 (Caenorhabditis elegans, UniProt G5EF15); assay: disruptors of C. elegans POS-1 RNA interaction – biochemical, fluorescence polarization, dose response (AID 1964);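 also: purified POS-1 fused to maltose binding protein made in E. coli; potency of compounds blocking POS-1 binding to fluorescent RNA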
T1 sequence (G5EF15 whole entry): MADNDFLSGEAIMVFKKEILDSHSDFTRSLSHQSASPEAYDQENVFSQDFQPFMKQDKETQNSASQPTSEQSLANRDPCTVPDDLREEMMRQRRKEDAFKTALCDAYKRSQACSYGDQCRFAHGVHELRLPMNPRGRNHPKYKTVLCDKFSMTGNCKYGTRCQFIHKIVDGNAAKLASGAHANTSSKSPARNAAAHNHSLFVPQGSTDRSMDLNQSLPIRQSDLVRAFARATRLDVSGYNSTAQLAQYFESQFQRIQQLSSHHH

[3] = Luminescence Cell-Based Dose Response HTS to Identify Activators of Luciferase Translation or Activity in H4 […] Cells. [Related pubchem assays: 1829 (Project Summary), 1814 (Primary HTS)]; format: functional
[4] = test system: H4; assay: Luminescence Cell-Based Dose Response HTS to Identify Activators of 5'UTR Stem-Loop Driven Prion Protein mRNA Translation in H4 Neuroglioblastoma Cells. [Related pubchem assays: 1829 (Project Summary), 1814 (Primary HTS)]; format: functional; details: Homo sapiens
[5] = biological target: T2, Zinc finger protein mex-5 (Caenorhabditis elegans, UniProt Q9XUB2); assay: potency of MEX-5 RNA-binding blockers – biochemical, C. elegans, fluorescence polarization, dose response (AID 1960)
T2 sequence (Q9XUB2 whole entry): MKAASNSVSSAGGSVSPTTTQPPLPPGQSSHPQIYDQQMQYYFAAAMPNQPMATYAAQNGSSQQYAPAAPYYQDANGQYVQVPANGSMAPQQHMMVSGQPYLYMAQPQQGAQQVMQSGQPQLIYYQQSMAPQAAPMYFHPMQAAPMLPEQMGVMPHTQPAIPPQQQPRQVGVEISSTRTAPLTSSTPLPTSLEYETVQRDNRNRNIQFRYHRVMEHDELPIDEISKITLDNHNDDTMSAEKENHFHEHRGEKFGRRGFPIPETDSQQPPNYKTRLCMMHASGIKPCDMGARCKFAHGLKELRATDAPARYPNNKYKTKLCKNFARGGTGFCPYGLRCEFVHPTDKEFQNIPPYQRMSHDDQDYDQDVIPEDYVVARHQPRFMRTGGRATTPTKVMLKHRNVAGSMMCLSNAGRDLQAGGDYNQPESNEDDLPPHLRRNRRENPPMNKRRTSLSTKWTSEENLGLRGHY

[6] = Luminescence Cell-Based Dose Response to Identify Activators of Luciferase Translation or Activity in H4-C Neuroglioblastoma Cells. [Related pubchem assays: 1829 (Project Summary), 1814 (Primary HTS)]; format: functional
[7] = Luminescence Cell-Based Dose Confirmation to Identify Activators of 5'UTR Stem-Loop Driven Alpha-Synuclein mRNA Translation in H4 Neuroglioblastoma Cells. [Related pubchem assays: 1829 (Project Summary), 1814 (Primary HTS)]; format: functional
[8] = biological target: Troponin, cardiac muscle (Homo sapiens, UniProt P19429+P45379+P63316); assay: Fluorescence-based biochemical high throughput dose response assay for activators of the calcium sensitivity of cardiac Regulated Thin Filaments (RTF). [Related pubchem assays (depositor defined):AID493008, AID493018, AID504382, AID504383]; format: protein-complex assay
[9] = biological target: T3, Hexokinase HKDC1 (Homo sapiens, UniProt Q2TB90); assay: activation of HKDC1 glucose phosphorylation – biochemical, W721R variant, dose response (AID 504730); format: functional
T3 sequence (Q2TB90 whole entry): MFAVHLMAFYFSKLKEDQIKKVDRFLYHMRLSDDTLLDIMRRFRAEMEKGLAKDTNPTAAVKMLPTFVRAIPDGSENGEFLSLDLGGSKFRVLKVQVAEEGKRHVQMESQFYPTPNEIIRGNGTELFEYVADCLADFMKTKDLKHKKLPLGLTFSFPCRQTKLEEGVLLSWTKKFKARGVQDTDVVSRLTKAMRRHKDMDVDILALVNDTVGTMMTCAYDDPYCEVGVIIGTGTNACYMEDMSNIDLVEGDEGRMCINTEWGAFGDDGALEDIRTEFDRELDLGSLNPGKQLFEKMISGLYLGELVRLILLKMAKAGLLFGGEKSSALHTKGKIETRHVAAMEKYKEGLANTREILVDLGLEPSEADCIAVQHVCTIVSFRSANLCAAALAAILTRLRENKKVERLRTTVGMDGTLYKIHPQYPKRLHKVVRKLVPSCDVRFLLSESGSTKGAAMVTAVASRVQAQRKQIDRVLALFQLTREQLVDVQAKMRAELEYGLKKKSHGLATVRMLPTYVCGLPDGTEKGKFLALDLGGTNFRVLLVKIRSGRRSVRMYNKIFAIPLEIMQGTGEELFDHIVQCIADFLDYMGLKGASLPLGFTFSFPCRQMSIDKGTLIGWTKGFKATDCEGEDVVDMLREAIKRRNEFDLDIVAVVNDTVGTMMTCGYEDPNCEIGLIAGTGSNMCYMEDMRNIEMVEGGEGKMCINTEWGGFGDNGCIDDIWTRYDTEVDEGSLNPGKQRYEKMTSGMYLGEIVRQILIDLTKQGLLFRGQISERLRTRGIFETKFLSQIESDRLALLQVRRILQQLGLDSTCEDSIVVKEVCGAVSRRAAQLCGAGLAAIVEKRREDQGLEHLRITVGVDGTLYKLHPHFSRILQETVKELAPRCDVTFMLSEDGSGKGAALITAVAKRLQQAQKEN

[10] = biological target: Nonstructural protein 1 (Influenza A virus, UniProt Q194T2); format: functional, Influenza A virus (A/California/07/2009(H1N1))
[11] = biological target: Hexokinase-1 (Homo sapiens, UniProt P19367); assay: HK1 enzyme activation by HKDC1 hits – biochemical, selectivity assay for HKDC1 activator project, dose response (AID 504762); format: functional
[12] = test system: HEK293; assay: EBV LMP1 TES2 canonical NF-kB signalling blockers – cell-based, HEK293, luciferase, cherry-pick, dose response (AID 588343); format: functional; details: Homo sapiens

Sequence of Nonstructural protein 1 (Q194T2 whole entry): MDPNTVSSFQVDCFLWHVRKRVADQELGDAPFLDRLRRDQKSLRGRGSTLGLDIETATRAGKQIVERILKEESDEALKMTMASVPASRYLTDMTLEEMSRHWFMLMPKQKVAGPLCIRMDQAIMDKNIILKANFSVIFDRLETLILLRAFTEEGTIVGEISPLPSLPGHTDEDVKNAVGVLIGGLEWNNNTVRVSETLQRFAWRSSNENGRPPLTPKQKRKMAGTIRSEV
Sequence of Hexokinase-1 (P19367 whole entry): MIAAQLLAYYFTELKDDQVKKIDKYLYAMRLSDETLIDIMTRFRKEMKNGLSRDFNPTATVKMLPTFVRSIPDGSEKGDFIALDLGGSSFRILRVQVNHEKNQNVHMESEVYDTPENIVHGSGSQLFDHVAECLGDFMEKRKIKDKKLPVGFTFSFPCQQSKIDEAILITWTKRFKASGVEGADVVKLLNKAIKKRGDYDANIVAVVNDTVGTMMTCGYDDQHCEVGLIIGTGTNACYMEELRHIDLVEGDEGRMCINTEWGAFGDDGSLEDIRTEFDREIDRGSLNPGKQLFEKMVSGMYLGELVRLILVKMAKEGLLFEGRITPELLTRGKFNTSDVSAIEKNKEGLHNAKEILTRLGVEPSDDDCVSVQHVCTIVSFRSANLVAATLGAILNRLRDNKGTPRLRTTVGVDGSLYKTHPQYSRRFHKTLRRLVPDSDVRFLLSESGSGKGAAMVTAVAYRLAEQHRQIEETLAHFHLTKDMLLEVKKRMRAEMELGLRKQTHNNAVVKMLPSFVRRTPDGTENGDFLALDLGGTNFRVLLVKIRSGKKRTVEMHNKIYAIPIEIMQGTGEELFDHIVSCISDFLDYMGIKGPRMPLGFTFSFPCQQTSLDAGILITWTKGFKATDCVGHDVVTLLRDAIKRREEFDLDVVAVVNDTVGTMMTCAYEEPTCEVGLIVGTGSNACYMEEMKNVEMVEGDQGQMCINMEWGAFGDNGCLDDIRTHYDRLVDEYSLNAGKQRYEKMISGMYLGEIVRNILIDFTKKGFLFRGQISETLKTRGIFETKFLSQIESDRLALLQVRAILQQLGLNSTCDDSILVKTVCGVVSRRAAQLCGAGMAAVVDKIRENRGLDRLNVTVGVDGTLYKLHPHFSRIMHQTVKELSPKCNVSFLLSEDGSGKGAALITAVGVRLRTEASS

Row | SMILES | EC50 [1] | EC50 [2] | EC50 [3] | EC50 [4] | EC50 [5] | EC50 [6] | EC50 [7] | EC50 [8] | EC50 [9] | IC50 [10] | EC50 [11] | AC50 [12]
1 | CN1C(=O)/C(=C/c2ccc(N3CCCCCC3)o2)C(=O)NC1=S | 325 nM (active) | > 300 µM (not active) | < 100 nM (active) | 39.5 µM (active) | > 300 µM (inconclusive) | 462 nM (active) | 206 nM (active) | 2.22 µM (active) |  |  |  | 
2 | CC(=NNC(=S)N1CC2CCC(CC2)C1)c1nccs1 |  |  |  |  |  |  |  |  | 1.83 µM (active) | 13 µM (active) | > 80 µM (inactive) | 539 nM (active)
